# Experimental data taken from patent US20240408167A1, “COMPOSITION FOR TREATING OCULAR DISEASES CONTAINING PEPTIDE” (Encuragen Inc., priority 2023, published 2024).
# Where a name gives a salt, the structure may show the parent alone. Read-outs that look alike come from different tables or passages of the source.
# Test system: BALB/3T3 clone A31 cells
# Test: cells
# Format: cell-based
# Settings: for IC50: Mus musculus, light or radiation study, BALB/3T3 clone A31 cells, neutral red
# Experimental: To evaluate the phototoxicity of (PEG)-BHD1028, the potential phototoxicity of (PEG)-BHD1028 was measured in the BALB/3T3 clone A31 cells after UV exposure. The test substance and the positive control group (chlorpromazine hydrochloride; CPZ) were dissolved in a Hank's Balanced Salt Solution (HBSS) and then diluted with a Hank's Balanced Salt Solution (HBSS). The cells were trypsinized and counted. Thereafter, 1×10^4 cells per well were seeded in a 96-well plate and cultured for approximately 24 hours before treating the test samples. One hour after the sample treatment, the plate was irradiated with a UV irradiation system (UVA, 365 nm). After UV irradiation, the plate was incubated for 24 hours. The cell viability of the cultured cells was confirmed by measuring the absorbance at 540 nm using the neutral red staining method.
smiles,measurement,setting,value
"CN(C)CCCN1c2ccccc2Sc2ccc(Cl)cc21 [CPZ, chlorpromazine hydrochloride, reference compound]",phototoxicity classification by PIF and MPE,,positive results
same,IC50,"UVA 365 nm irradiation, read-out: IC50 UV (+Irr)",1.26 µg/mL
same,IC50,"without UV irradiation, read-out: IC50 UV (−Irr)",37.5 µg/mL
same,MPE (mean photo effect),"mouse, 24 h",0.489
same,PIF (photo irradiation factor),"mouse, 24 h",29.668
